For 25 compounds, Ki results are on record in patent US10533010B2, “Substituted indole Mcl-1 inhibitors” (Vanderbilt University, priority 2014, dated 2020).

By Ki is commonly meant a measure of affinity in units of concentration, obtained from inhibition or displacement.

SMILES strings stand for the structures.

recombinant Mcl-1 (residues 172-327), sequence (Q07820 172-327): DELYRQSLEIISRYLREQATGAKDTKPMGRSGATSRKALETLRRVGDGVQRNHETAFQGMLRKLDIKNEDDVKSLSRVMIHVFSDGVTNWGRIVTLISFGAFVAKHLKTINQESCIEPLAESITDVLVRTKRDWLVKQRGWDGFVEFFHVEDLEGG

One test concerns the target recombinant Mcl-1 (residues 172-327) (Homo sapiens (Human), UniProt Q07820). The test is described as follows: Fluorescence polarization anisotropy competition assay (FITC-Bak or FITC-Bim BH3 peptide) with Mcl-1. The format is binding. Particulars: Table 2; Ki bins given in nM; FITC-Bak or FITC-Bim peptide competition; Ki converted from IC50; read-out: Ki for Inhibition of Mcl-1. (In fluorescence polarisation assays a small probe gives low polarisation when free and higher when bound to something large.)
As to `Cc1cc(OCCCc2c3n(c4c(-c5c(C)nn(C)c5C)c(Cl)ccc24)CCCN(c2cc(Cl)cc(C(=O)O)c2)C3=O)cc(C)c1Cl` [I-221, 3-chloro-5-(8-chloro-11-(3-(4-chloro-3,5-dimethylphenoxy)propyl)-1-oxo-7-(1,3,5-trimethyl-1H-pyrazol-4-yl)-4,5-dihydro-1H-[1,4]diazepino[1,2-a]indol-2(3H)-yl)benzoic acid], the Ki was under 50 nM.
The same measure, in the same setting: the figure for `Cc1cc(OCCCc2c(C(=O)NCC(=O)NS(=O)(=O)c3ccccc3)[nH]c3ccccc23)cc(C)c1Cl` [I-5, 3-(3-(4-chloro-3,5-dimethylphenoxy)propyl)-N-(2-oxo-2-(phenylsulfonamido)ethyl)-1H-indole-2-carboxamide] is 101 to 299 nM.
Take `Cc1cc(OCCCc2c3n(c4c(-c5c(C)nn(C)c5C)c(Cl)ccc24)CCN(c2cncc(C(=O)O)c2)C3=O)cc(C)c1Cl` [I-198, 5-(7-chloro-10-(3-(4-chloro-3,5-dimethylphenoxy)propyl)-1-oxo-6-(1,3,5-trimethyl-1H-pyrazol-4-yl)-3,4-dihydropyrazino[1,2-a]indol-2(1H)-yl)nicotinic acid]: the Ki is under 50 nM.
As to `Cc1cc(OCCCc2c3n(c4c(-c5c(C)nn(C)c5C)c(Cl)ccc24)C[C@@H](C)N(Cc2cccc(C(=O)O)c2)C3=O)cc(C)c1Cl` [I-121, (R)-3-((7-chloro-10-(3-(4-chloro-3,5-dimethylphenoxy)propyl)-3-methyl-1-oxo-6-(1,3,5-trimethyl-1H-pyrazol-4-yl)-3,4-dihydropyrazino[1,2-a]indol-2(1H)-yl)methyl)benzoic acid], the Ki is under 50 nM.
On to `Cc1cc(OCCCc2c(C(=O)N[C@H]3CCC[C@H]3C(=O)O)[nH]c3c(-c4c(C)nn(C)c4C)c(Cl)ccc23)cc(C)c1Cl` [I-334, (1R,2S)-2-(6-chloro-3-(3-(4-chloro-3,5-dimethylphenoxy)propyl)-7-(1,3,5-trimethyl-1H-pyrazol-4-yl)-1H-indole-2-carboxamido)cyclopentane-1-carboxylic acid], for which the Ki is under 50 nM.
Same read-out and setting: to `Cc1cc(OCCCc2c(C(=O)Nc3ccc(C#N)cc3)[nH]c3c(-c4c(C)nn(C)c4C)c(Cl)ccc23)cc(C)c1Cl` [I-355, 6-chloro-3-(3-(4-chloro-3,5-dimethylphenoxy)propyl)-N-(4-cyanophenyl)-7-(1,3,5-trimethyl-1H-pyrazol-4-yl)-1H-indole-2-carboxamide] belongs 51 to 100 nM; to `Cc1cc(OCCCc2c(C(=O)NCCC(=O)NS(=O)(=O)C3CC3)[nH]c3ccccc23)cc(C)c1Cl` [I-13, 3-(3-(4-chloro-3,5-dimethylphenoxy)propyl)-N-(3-(cyclopropanesulfonamido)-3-oxopropyl)-1H-indole-2-carboxamide], 301 to 500 nM; to `COC(=O)c1cccc(N2CCN(C(=O)c3[nH]c4cc(Cl)ccc4c3CCCOc3cc(C)c(Cl)c(C)c3)CC2)c1` [I-52, methyl 3-(4-(6-chloro-3-(3-(4-chloro-3,5-dimethylphenoxy)propyl)-1H-indole-2-carbonyl)piperazin-1-yl)benzoate], 501 to 999 nM.
For `Cc1cc(OCCCc2c3n(c4c(-c5c(C)nn(C)c5C)c(Cl)ccc24)CCCN(Cc2cc(C(=O)O)cc(-c4ccc(OCc5ccccc5C(F)(F)F)cc4)c2)C3=O)cc(C)c1Cl` [I-308, 5-((8-chloro-1-(3-(4-chloro-3,5-dimethylphenoxy)propyl)-1-oxo-7-(1,3,5-trimethyl-1H-pyrazol-4-yl)-4,5-dihydro-1H-[1,4]diazepino[1,2-a]indol-2(3H)-yl)methyl)-4′-((2-(trifluoromethyl)benzyl)oxy)-[1,1′-biphenyl]-3-carboxylic acid], the Ki fell in the range of 51 to 100 nM.
Same read-out and setting: to `Cc1cc(OCCCc2c3n(c4c(-c5c(C)nn(C)c5C)c(Cl)ccc24)[C@H](C)CN(c2cccc(C(=O)O)c2)C3=O)cc(C)c1Cl` [I-171, (R)-3-(7-chloro-10-(3-(4-chloro-3,5-dimethylphenoxy)propyl)-4-methyl-1-oxo-6-(1,3,5-trimethyl-1H-pyrazol-4-yl)-3,4-dihydropyrazino[1,2-a]indol-2(1H)-yl)benzoic acid] belongs under 50 nM; to `Cc1cc(OCCCc2c3n(c4c(-c5c(C)nn(C)c5C)cccc24)CCCN(Cc2cc(Br)cc(C(=O)O)c2)C3=O)cc(C)c1Cl` [I-296, 3-bromo-5-((11-(3-(4-chloro-3,5-dimethylphenoxy)propyl)-1-oxo-7-(1,3,5-trimethyl-1H-pyrazol-4-yl)-4,5-dihydro-1H-[1,4]diazepino[1,2-a]indol-2(3H)-yl)methyl)benzoic acid], 51 to 100 nM; to `Cc1cc(OCCCc2c3n(c4c(-c5c(C)nn(C)c5C)cc(Cl)cc24)CCCN(c2cccc(C(=O)O)c2)C3=O)cc(C)c1Cl` [I-246, 3-(9-chloro-11-(3-(4-chloro-3,5-dimethylphenoxy)propyl)-1-oxo-7-(1,3,5-trimethyl-1H-pyrazol-4-yl)-4,5-dihydro-1H-[1,4]diazepino[1,2-a]indol-2(3H)-yl)benzoic acid], 101 to 299 nM.
For `Cc1cc(OCCCc2c3n(c4c(-c5c(C)nn(C)c5C)c(Cl)ccc24)CCCN(c2cc(C(=O)O)cc4c2c(Cl)cn4C)C3=O)cc(C)c1Cl` [I-255, 3-chloro-4-(8-chloro-11-(3-(4-chloro-3,5-dimethylphenoxy)propyl)-1-oxo-7-(1,3,5-trimethyl-1H-pyrazol-4-yl)-4,5-dihydro-1H-[1,4]diazepino[1,2-a]indol-2(3H)-yl)-1-methyl-1H-indole-6-carboxylic acid], the Ki was under 50 nM.
With `Cc1cc(OCCCc2c(C(=O)Nc3cccc(C(=O)NS(=O)(=O)c4ccc([N+](=O)[O-])cc4)c3)[nH]c3c(-c4cccnc4C)cccc23)cc(C)c1Cl` [I-68, 3-(3-(4-chloro-3,5-dimethylphenoxy)propyl)-7-(2-methylpyridin-3-yl)-N-(3-(((4-nitrophenyl)sulfonyl)carbamoyl)phenyl)-1H-indole-2-carboxamide], the Ki was 51 to 100 nM.
As to `Cc1cc(OCCCc2c3n(c4c(-c5c(C)nn(C)c5C)c(Cl)ccc24)CCN(c2ccc(C(=O)O)cc2)C3=O)cc(C)c1Cl` [I-176, 4-(7-chloro-10-(3-(4-chloro-3,5-dimethylphenoxy)propyl)-1-oxo-6-(1,3,5-trimethyl-1H-pyrazol-4-yl)-3,4-dihydropyrazino[1,2-a]indol-2(1H)-yl)benzoic acid], the Ki was under 50 nM.
`Cc1cc(OCCCc2c(C(=O)N[C@H]3CCCC[C@H]3C(=O)O)[nH]c3c(-c4c(C)nn(C)c4C)c(Cl)ccc23)cc(C)c1Cl` [I-333, (1R,2S)-2-(6-chloro-3-(3-(4-chloro-3,5-dimethylphenoxy)propyl)-7-(1,3,5-trimethyl-1H-pyrazol-4-yl)-1H-indole-2-carboxamido)cyclohexane-1-carboxylic acid]: the Ki was under 50 nM.
As to `Cc1cc(OCCCc2c3n(c4c(-c5c(C)nn(C)c5C)c(Cl)ccc24)CCCN(CC(=O)N[C@@H](Cc2ccccc2)C(=O)O)C3=O)cc(C)c1Cl` [I-305, (2-(8-chloro-11-(3-(4-chloro-3,5-dimethylphenoxy)propyl)-1-oxo-7-(1,3,5-trimethyl-1H-pyrazol-4-yl)-4,5-dihydro-1H-[1,4]diazepino[1,2-a]indol-2(3H)-yl)acetyl)-L-phenylalanine], the Ki is under 50 nM.
On the same count and under the same terms, the figure for `Cc1cc(OCCCc2c(C(=O)N(C)Cc3cc(C(=O)O)c(C)o3)n(C)c3c(-c4c(C)nn(C)c4C)cccc23)cc(C)c1Cl` [I-274, 5-((3-(3-(4-chloro-3,5-dimethylphenoxy)propyl)-N,1-dimethyl-7-(1,3,5-trimethyl-1H-pyrazol-4-yl)-1H-indole-2-carboxamido)methyl)-2-methylfuran-3-carboxylic acid] is 101 to 299 nM; for `Cc1cc(OCCCc2c3n(c4c(-c5c(C)nn(C)c5C)c(Cl)ccc24)CCCN(c2cc(C(=O)O)c4c(ccn4C)c2)C3=O)cc(C)c1Cl` [I-250, 5-(8-chloro-11-(3-(4-chloro-3,5-dimethylphenoxy)propyl)-1-oxo-7-(1,3,5-trimethyl-1H-pyrazol-4-yl)-4,5-dihydro-1H-[1,4]diazepino[1,2-a]indol-2(3H)-yl)-1-methyl-1H-indole-7-carboxylic acid] it is under 50 nM; for `Cc1cc(OCCCc2c(C(=O)Nc3cc[nH]n3)[nH]c3c(-c4c(C)nn(C)c4C)cccc23)cc(C)c1Cl` [I-313, 3-(3-(4-chloro-3,5-dimethylphenoxy)propyl)-N-(1H-pyrazol-3-yl)-7-(1,3,5-trimethyl-1H-pyrazol-4-yl)-1H-indole-2-carboxamide] it is 501 to 999 nM.
As to `Cc1cc(OCCCc2c(C(=O)NCc3ccc(C(=O)O)o3)[nH]c3c(-c4c(C)n[nH]c4C)cccc23)cc(C)c1Cl` [I-62, 5-((3-(3-(4-chloro-3,5-dimethylphenoxy)propyl)-7-(3,5-dimethyl-1H-pyrazol-4-yl)-1H-indole-2-carboxamido)methyl)furan-2-carboxylic acid], the Ki was under 50 nM.
On the same count and under the same terms, to `Cc1cc(OCCCc2c(C(=O)N[C@H]3CCC[C@H]3C(=O)O)[nH]c3c(-c4c(C)nn(C)c4C)cccc23)cc(C)c1Cl` [I-314, (1R,2S)-2-(3-(3-(4-chloro-3,5-dimethylphenoxy)propyl)-7-(1,3,5-trimethyl-1H-pyrazol-4-yl)-1H-indole-2-carboxamido)cyclopentane-1-carboxylic acid] belongs 51 to 100 nM.

Staying with this test, now noted: Table 2; Ki bins given in μM; FITC-Bak or FITC-Bim peptide competition; Ki converted from IC50; read-out: Ki for Inhibition of Mcl-1.
In the case of `Cc1cc(OCCCc2c(C(=O)N3CCC(N4CCOCC4)CC3)[nH]c3ccccc23)cc(C)c1Cl` [I-47, (3-(3-(4-chloro-3,5-dimethylphenoxy)propyl)-1H-indol-2-yl)(4-morpholinopiperidin-1-yl)methanone], the Ki fell in the range of 10000 to 50000 nM.
`COC(=O)[C@H](CC(C)C)NC(=O)CNC(=O)c1[nH]c2c(-c3c(C)nn(C)c3C)cccc2c1CCCOc1cc(C)c(Cl)c(C)c1` [I-289, methyl (3-(3-(4-chloro-3,5-dimethylphenoxy)propyl)-7-(1,3,5-trimethyl-1H-pyrazol-4-yl)-1H-indole-2-carbonyl)glycyl-L-leucinate]: the Ki lay in the range of 10000 to 50000 nM.
Turning to `Cc1cc(OCCCc2c(C(=O)N3CCC(NC(=O)c4cccc(Oc5ccccc5)c4)CC3)[nH]c3ccccc23)cc(C)c1Cl` [I-259, N-(1-(3-(3-(4-chloro-3,5-dimethylphenoxy)propyl)-1H-indole-2-carbonyl)piperidin-4-yl)-3-phenoxybenzamide], the Ki lay in the range of 1000 to 9990 nM.
